In PubChem BioAssay (NCI):
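Method: 48-hour compound exposure of cells in 96-well plates, five concentrations, linear interpolation of endpoints. The concentration for full growth arrest is given as TGI.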

Assays:
Assay in all cases: growth of human tumour cells (NCI), 48 h
786-0 renal = test system: 786-0 renal
A498 renal = test system: A498 renal
A549 NSCLC = test system: A549 NSCLC
ACHN renal = test system: ACHN renal
CCRF-CEM leukemia = test system: CCRF-CEM leukemia
COLO 205 colon = test system: COLO 205 colon
DMS 273 small cell lung = test system: DMS 273 small cell lung
EKVX NSCLC = test system: EKVX NSCLC
HCT-116 colon = test system: HCT-116 colon
HCT-15 colon = test system: HCT-15 colon
HL-60(TB) leukemia = test system: HL-60(TB) leukemia
HOP-18 NSCLC = test system: HOP-18 NSCLC
HOP-62 NSCLC = test system: HOP-62 NSCLC
HT29 colon = test system: HT29 colon
IGROV1 ovarian = test system: IGROV1 ovarian
K-562 leukemia = test system: K-562 leukemia
KM12 colon = test system: KM12 colon
KM20L2 colon = test system: KM20L2 colon
LOX IMVI melanoma = test system: LOX IMVI melanoma
LXFL 529 NSCLC = test system: LXFL 529 NSCLC
M14 melanoma = test system: M14 melanoma
M19-MEL melanoma = test system: M19-MEL melanoma
MALME-3M melanoma = test system: MALME-3M melanoma
MOLT-4 leukemia = test system: MOLT-4 leukemia
NCI-H226 lung = test system: NCI-H226 lung
NCI-H23 lung = test system: NCI-H23 lung
NCI-H460 lung = test system: NCI-H460 lung
OVCAR-3 ovarian = test system: OVCAR-3 ovarian
OVCAR-4 ovarian = test system: OVCAR-4 ovarian
OVCAR-5 ovarian = test system: OVCAR-5 ovarian
OVCAR-8 ovarian = test system: OVCAR-8 ovarian
RPMI-8226 leukemia = test system: RPMI-8226 leukemia
RXF-631 renal = test system: RXF-631 renal
SF-295 CNS = test system: SF-295 CNS
SF-539 CNS = test system: SF-539 CNS
SK-MEL-2 melanoma = test system: SK-MEL-2 melanoma
SK-MEL-28 melanoma = test system: SK-MEL-28 melanoma
SK-MEL-5 melanoma = test system: SK-MEL-5 melanoma
SK-OV-3 ovarian = test system: SK-OV-3 ovarian
SN12C renal = test system: SN12C renal
SNB-19 CNS = test system: SNB-19 CNS
SNB-75 CNS = test system: SNB-75 CNS
SNB-78 CNS = test system: SNB-78 CNS
SR leukemia = test system: SR leukemia
SW-620 colon = test system: SW-620 colon
TK-10 renal = test system: TK-10 renal
U251 CNS = test system: U251 CNS
UACC-257 melanoma = test system: UACC-257 melanoma
UACC-62 melanoma = test system: UACC-62 melanoma
UO-31 renal = test system: UO-31 renal
XF 498 CNS = test system: XF 498 CNS
DLD-1 colon = test system: DLD-1 colon
DMS 114 small cell lung = test system: DMS 114 small cell lung
HCC-2998 colon = test system: HCC-2998 colon
HOP-92 NSCLC = test system: HOP-92 NSCLC
NCI-H522 lung = test system: NCI-H522 lung
RXF 393 renal = test system: RXF 393 renal
SF-268 CNS = test system: SF-268 CNS
CAKI-1 renal = test system: CAKI-1 renal

`CCCCC1(C)C=C/C(=C2/C(=O)O/C(=C\C(=O)O)C2=O)O1` (configuration not stated) gave a TGI (786-0 renal) of over 100 µM, a TGI (A498 renal) of over 100 µM and a TGI (A549 NSCLC) of over 100 µM. The TGI (ACHN renal) was over 100 µM, the TGI (CCRF-CEM leukemia) was over 100 µM and the TGI (COLO 205 colon) was over 100 µM. The TGI (DMS 273 small cell lung) was over 100 µM, the TGI (EKVX NSCLC) was over 100 µM and the TGI (HCT-116 colon) was over 100 µM. For the same molecule, the TGI (HCT-15 colon) was over 100 µM, the TGI (HL-60(TB) leukemia) was over 100 µM and the TGI (HOP-18 NSCLC) was over 100 µM. It also gave a TGI (HOP-62 NSCLC) of over 100 µM, a TGI (HT29 colon) of over 100 µM and a TGI (IGROV1 ovarian) of over 100 µM. For the same molecule, the TGI (K-562 leukemia) was over 100 µM, the TGI (KM12 colon) was over 100 µM and the TGI (KM20L2 colon) was over 100 µM. For the same molecule, the TGI (LOX IMVI melanoma) was over 100 µM, the TGI (LXFL 529 NSCLC) was over 100 µM and the TGI (M14 melanoma) was over 100 µM. For the same molecule, the TGI (M19-MEL melanoma) was over 100 µM, the TGI (MALME-3M melanoma) was over 100 µM and the TGI (MOLT-4 leukemia) was over 100 µM. For the same molecule, the TGI (NCI-H226 lung) was over 100 µM, the TGI (NCI-H23 lung) was over 100 µM and the TGI (NCI-H460 lung) was over 100 µM. It also gave a TGI (OVCAR-3 ovarian) of over 100 µM, a TGI (OVCAR-4 ovarian) of over 100 µM and a TGI (OVCAR-5 ovarian) of over 100 µM. For the same molecule, the TGI (OVCAR-8 ovarian) was over 100 µM, the TGI (RPMI-8226 leukemia) was over 100 µM and the TGI (RXF-631 renal) was over 100 µM. For the same molecule, the TGI (SF-295 CNS) was over 100 µM, the TGI (SF-539 CNS) was over 100 µM and the TGI (SK-MEL-2 melanoma) was over 100 µM. The TGI (SK-MEL-28 melanoma) was over 100 µM, the TGI (SK-MEL-5 melanoma) was over 100 µM and the TGI (SK-OV-3 ovarian) was over 100 µM. It also gave a TGI (SN12C renal) of over 100 µM, a TGI (SNB-19 CNS) of over 100 µM and a TGI (SNB-75 CNS) of over 100 µM. For the same molecule, the TGI (SNB-78 CNS) was over 100 µM, the TGI (SR leukemia) was over 100 µM and the TGI (SW-620 colon) was over 100 µM. The TGI (TK-10 renal) was over 100 µM, the TGI (U251 CNS) was over 100 µM and the TGI (UACC-257 melanoma) was over 100 µM. For the same molecule, the TGI (UACC-62 melanoma) was over 100 µM, the TGI (UO-31 renal) was over 100 µM and the TGI (XF 498 CNS) was over 100 µM.

`CCCCCCCCCCCCC(Br)C(=O)NCC(N)=O` (configuration not stated) showed a TGI (786-0 renal) of 20.9 µM, a TGI (A498 renal) of 26.7 µM and a TGI (A549 NSCLC) of 34.7 µM. The TGI (ACHN renal) was 29.2 µM, the TGI (CCRF-CEM leukemia) was 66.3 µM and the TGI (COLO 205 colon) was 39.2 µM. For the same molecule, the TGI (DLD-1 colon) was 29.8 µM, the TGI (DMS 114 small cell lung) was 15.2 µM and the TGI (DMS 273 small cell lung) was 25 µM. The TGI (EKVX NSCLC) was 42 µM, the TGI (HCC-2998 colon) was 31 µM and the TGI (HCT-116 colon) was 3.72 µM. It also gave a TGI (HCT-15 colon) of 28.7 µM, a TGI (HL-60(TB) leukemia) of 31 µM and a TGI (HOP-18 NSCLC) of 28.2 µM. For the same molecule, the TGI (HOP-62 NSCLC) was 29.3 µM, the TGI (HOP-92 NSCLC) was 18.9 µM and the TGI (HT29 colon) was 36 µM. For the same molecule, the TGI (IGROV1 ovarian) was 29.8 µM, the TGI (KM12 colon) was 28.8 µM and the TGI (KM20L2 colon) was 42.5 µM. The TGI (LOX IMVI melanoma) was 42.1 µM, the TGI (LXFL 529 NSCLC) was 21.5 µM and the TGI (M14 melanoma) was 24.6 µM. It also gave a TGI (M19-MEL melanoma) of 32.5 µM, a TGI (MALME-3M melanoma) of 28 µM and a TGI (NCI-H226 lung) of 8.79 µM. The TGI (NCI-H23 lung) was 14.7 µM, the TGI (NCI-H460 lung) was 34.7 µM and the TGI (NCI-H522 lung) was 5.22 µM. For the same molecule, the TGI (OVCAR-3 ovarian) was 32.1 µM, the TGI (OVCAR-4 ovarian) was 12.6 µM and the TGI (OVCAR-5 ovarian) was 57.3 µM. It also gave a TGI (OVCAR-8 ovarian) of 33.6 µM, a TGI (RXF 393 renal) of 8.52 µM and a TGI (RXF-631 renal) of 18.4 µM. For the same molecule, the TGI (SF-268 CNS) was 17.8 µM, the TGI (SF-295 CNS) was 29.5 µM and the TGI (SF-539 CNS) was 27.7 µM. For the same molecule, the TGI (SK-MEL-2 melanoma) was 26.4 µM, the TGI (SK-MEL-28 melanoma) was 29.2 µM and the TGI (SK-MEL-5 melanoma) was 18.4 µM. It also gave a TGI (SK-OV-3 ovarian) of 59.2 µM, a TGI (SNB-19 CNS) of 24.3 µM and a TGI (SNB-75 CNS) of 11.6 µM. The TGI (SNB-78 CNS) was 32.2 µM, the TGI (SW-620 colon) was 52.9 µM and the TGI (TK-10 renal) was 34.7 µM. The TGI (U251 CNS) was 24.6 µM, the TGI (UACC-257 melanoma) was 24.7 µM and the TGI (UACC-62 melanoma) was 22.7 µM. The TGI (UO-31 renal) was 6.92 µM and the TGI (XF 498 CNS) was 3.83 µM.

In the case of `COCCNC(=O)C1C(=O)C(=O)N(CCOC)C1=O` (configuration not stated), the TGI (786-0 renal) is reported as over 100 µM, the TGI (A498 renal) is reported as over 100 µM and the TGI (A549 NSCLC) is reported as over 100 µM. For the same molecule, the TGI (ACHN renal) was over 100 µM, the TGI (CAKI-1 renal) was over 100 µM and the TGI (CCRF-CEM leukemia) was over 100 µM. The TGI (COLO 205 colon) was over 100 µM, the TGI (DLD-1 colon) was over 100 µM and the TGI (DMS 114 small cell lung) was over 100 µM. The TGI (DMS 273 small cell lung) was over 100 µM, the TGI (EKVX NSCLC) was over 100 µM and the TGI (HCC-2998 colon) was over 100 µM. It also gave a TGI (HCT-116 colon) of over 100 µM, a TGI (HCT-15 colon) of over 100 µM and a TGI (HOP-18 NSCLC) of over 100 µM. It also gave a TGI (HOP-62 NSCLC) of over 100 µM, a TGI (HOP-92 NSCLC) of over 100 µM and a TGI (HT29 colon) of over 100 µM. The TGI (IGROV1 ovarian) was over 100 µM, the TGI (K-562 leukemia) was over 100 µM and the TGI (KM20L2 colon) was over 100 µM. It also gave a TGI (LOX IMVI melanoma) of over 100 µM, a TGI (LXFL 529 NSCLC) of over 100 µM and a TGI (M14 melanoma) of over 100 µM. For the same molecule, the TGI (M19-MEL melanoma) was over 100 µM, the TGI (MALME-3M melanoma) was over 100 µM and the TGI (NCI-H226 lung) was over 100 µM. For the same molecule, the TGI (NCI-H23 lung) was over 100 µM, the TGI (NCI-H522 lung) was over 100 µM and the TGI (OVCAR-3 ovarian) was over 100 µM. It also gave a TGI (OVCAR-4 ovarian) of over 100 µM, a TGI (OVCAR-5 ovarian) of over 100 µM and a TGI (OVCAR-8 ovarian) of over 100 µM. It also gave a TGI (RXF 393 renal) of over 100 µM, a TGI (RXF-631 renal) of over 100 µM and a TGI (SF-268 CNS) of over 100 µM. The TGI (SF-295 CNS) was over 100 µM, the TGI (SF-539 CNS) was over 100 µM and the TGI (SK-MEL-2 melanoma) was over 100 µM. It also gave a TGI (SK-MEL-28 melanoma) of over 100 µM, a TGI (SK-MEL-5 melanoma) of over 100 µM and a TGI (SK-OV-3 ovarian) of over 100 µM. The TGI (SN12C renal) was over 100 µM, the TGI (SNB-19 CNS) was over 100 µM and the TGI (SNB-75 CNS) was over 100 µM. The TGI (SNB-78 CNS) was over 100 µM, the TGI (SR leukemia) was over 100 µM and the TGI (SW-620 colon) was over 100 µM. The TGI (TK-10 renal) was over 100 µM, the TGI (U251 CNS) was over 100 µM and the TGI (UACC-257 melanoma) was over 100 µM. For the same molecule, the TGI (UACC-62 melanoma) was over 100 µM and the TGI (UO-31 renal) was over 100 µM.
